This assay addresses T1, aldosterone receptor MR (Rattus norvegicus, UniProt P22199).
T1 construct: the resultant supernatant was being a soluble fraction of the kidney; from tissue; host or cells: kidney of adrenalectomized rat, 105,000 G supernatant (soluble fraction)
T1 sequence (P22199 1-981): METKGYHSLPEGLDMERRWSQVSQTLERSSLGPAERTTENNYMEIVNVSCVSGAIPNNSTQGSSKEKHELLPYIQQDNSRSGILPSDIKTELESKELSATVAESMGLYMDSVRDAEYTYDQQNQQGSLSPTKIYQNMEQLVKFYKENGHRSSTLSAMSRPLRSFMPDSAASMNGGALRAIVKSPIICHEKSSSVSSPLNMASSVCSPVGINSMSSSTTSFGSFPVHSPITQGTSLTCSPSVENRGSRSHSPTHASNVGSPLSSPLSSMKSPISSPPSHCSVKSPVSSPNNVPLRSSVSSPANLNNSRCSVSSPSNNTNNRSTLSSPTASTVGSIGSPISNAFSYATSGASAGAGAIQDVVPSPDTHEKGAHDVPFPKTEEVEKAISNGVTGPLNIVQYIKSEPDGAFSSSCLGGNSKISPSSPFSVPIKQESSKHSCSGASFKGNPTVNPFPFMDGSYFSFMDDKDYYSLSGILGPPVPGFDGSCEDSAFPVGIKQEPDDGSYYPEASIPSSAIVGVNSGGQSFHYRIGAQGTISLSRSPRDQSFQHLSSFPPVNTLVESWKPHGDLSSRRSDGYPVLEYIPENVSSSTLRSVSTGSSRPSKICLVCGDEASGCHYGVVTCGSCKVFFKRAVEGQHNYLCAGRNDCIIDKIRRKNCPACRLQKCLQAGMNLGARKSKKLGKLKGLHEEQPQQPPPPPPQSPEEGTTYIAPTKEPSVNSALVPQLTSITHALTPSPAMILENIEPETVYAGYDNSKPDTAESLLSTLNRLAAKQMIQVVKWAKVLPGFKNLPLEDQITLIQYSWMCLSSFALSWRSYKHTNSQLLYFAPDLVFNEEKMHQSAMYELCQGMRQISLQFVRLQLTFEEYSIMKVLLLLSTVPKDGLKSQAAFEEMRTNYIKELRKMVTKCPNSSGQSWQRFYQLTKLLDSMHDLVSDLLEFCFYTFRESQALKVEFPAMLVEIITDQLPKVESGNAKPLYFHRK
As to the kind of experiment: Aldosterone receptor binding assay ([3H]aldosterone, soluble fraction of rat kidney). To be noted: [3H]aldosterone 2 nM, 2 μM RU-486, 4° C. about 18 hours. The protocol:
Flank incision (both sides) was subjected to a rat to adrenalectomize. After suturing the rat's incised parts, the rat was again returned to a breeding cage and bred for a duration of 3 to 5 days to collect a kidney from the rat; the collected kidney was homogenized with 0.1 M Tris-HCl, 0.25M sucrose, 0.1M Na2MoO4, 2 mM DTT buffer solution (pH 7.4), the resultant solution was subjected to centrifugal separation at 105,000 G for 30 minutes, and the resultant supernatant was being a soluble fraction of the kidney.
Thereafter, the reactant solution was added with 50 μL of 5% dextran coated charcoal and mixed, and then centrifugated at 3,000 G for 5 minutes. Subsequently, 100 μL of the supernatant was collected and mixed with 3.5 mL of liquid scintillator ACS-II (Amersham) to measure a radioactivity with a liquid scintillation counter (manufactured by Packard, Tri Carb 2700TR). A non-specific binding was determined by adding 2 μM of aldosterone to the reactant solution.
Binding inhibiting rate (%)=10−[(B−N)/(B0−N)]×100
B: Binding amount of the marker ligand in the co-presence of the tested substance and marker ligand,
B0: Binding amount of the marker ligand in the absence of the tested substance, and
N: Binding amount of the marker ligand in the presence of excess aldosterone (2 μM).

`CC(=O)N(c1ccc2c(c1)C(C)(C)OC(=S)N2)S(=O)(=O)c1cccs1` [Example 26, N-(4,4-Dimethyl-2-thioxo-1,4-dihydro-2H-3,1-benzoxazin-6-yl)-N-(2-thienylsulfonyl)acetamide]: the IC50 was found to be 15 nM.
The value for `CC1(C)OC(=S)Nc2ccc(NS(=O)(=O)c3ccccc3F)cc21` [Example 29, N-(4,4-Dimethyl-2-thioxo-1,4-dihydro-2H-3,1-benzoxazin-6-yl)-2-fluorobenzenesulfonamide] was 1600 nM.
`CC1=CC(C)(C)Nc2ccc(CS(=O)(=O)c3ccc(C)cc3)cc21` [Example 57, 2,2,4-Trimethyl-6-{[(4-methylphenyl)sulfonyl]methy}-1,2-dihydroquinoline]: the IC50 stood at 29 nM.
Compound `Cc1ccc(S(=O)(=O)Cc2ccc3c(c2)C(C)CC(C)(C)N3)cc1` (stereo not shown) [Example 96, 2,2,4-Trimethyl-6-{[(4-methylphenyl)sulfonyl]methyl}-1,2,3,4-tetrahydroquinoline] yielded an IC50 of 500 nM.
With `CC1(C)OC(=O)Nc2ccc(NS(=O)(=O)c3cccs3)cc21` [Example 23, N-(4,4-Dimethyl-2-oxo-1,4-dihydro-2H-3,1-benzoxazin-6-yl)thiophene-2-sulfonamide] the figure was 2400 nM; with `CC1=CC(C)(C)Nc2ccc(NS(=O)(=O)c3ccccc3C)cc21` [Example 78, 2-Methyl-N-(2,2,4-trimethyl-1,2-dihydroquinolin-6-yl)benzenesulfonamide], 900 nM.
The value for `Cc1ccc(S(=O)(=O)Oc2ccc(NS(C)(=O)=O)cc2C)cc1` [Example 109, 2-Methyl-4-[(methylsulfonyl)amino]phenyl 4-methylbenzenesulfonate] was 16000 nM; that for `CC(=O)N(c1ccc2c(c1)C(C)=CC(C)(C)N2)S(=O)(=O)c1ccc(Cl)cc1` [Example 88, N-[(4-Chlorophenyl)sulfonyl]-N-(2,2,4-trimethyl-1,2-dihydroquinolin-6-yl) acetamide] was 300 nM; that for `Cc1ccc(S(=O)(=O)N(C)c2ccc3c(c2)C(C)CC(C)(C)N3)cc1` (stereo not shown) [Example 100, N,4-Dimethyl-N-(2,2,4-trimethyl-1,2,3,4-tetrahydroquinolin-6-yl)benzenesulfonamide] was 2100 nM.
Consider `C#CC1(C)OC(=S)Nc2ccc(NS(=O)(=O)c3cccs3)cc21` (stereo not shown) [Example 48, N-(4-Ethynyl-4-methyl-2-thioxo-1,4-dihydro-2H-3,1-benzoxazin-6-yl)thiophene-2-sulfonamide], for which the IC50 worked out at 320 nM.
Compound `CC1=CC(C)(C)Nc2ccc(NS(=O)(=O)c3ccccc3F)cc21` [Example 67, 2-Fluoro-N-(2,2,4-trimethyl-1,2-dihydroquinolin-6-yl)benzenesulfonamide] displayed an IC50 of 600 nM.
With `CC(=O)N(c1ccc2c(c1)C(C)=CC(C)(C)N2)S(=O)(=O)c1ccc(C)cc1` [Example 86, N-[(4-Methylphenyl)sulfonyl]-N-(2,2,4-trimethyl-1,2-dihydroquinolin-6-yl)acetamide] the figure was 270 nM.
As to `CC1=CC(C)(C)Nc2ccc(NS(=O)(=O)c3ccc(F)cc3)cc21` [Example 69, 4-Fluoro-N-(2,2,4-trimethyl-1,2-dihydroquinolin-6-yl)benzenesulfonamide], the 50% inhibitory concentration (IC50) was found to be 1200 nM.
`CC1=CC(C)(C)Nc2ccc(NS(=O)(=O)c3ccc(C(F)(F)F)cc3)cc21` [Example 70, 4-(Trifluoromethyl)-N-(2,2,4-trimethyl-1,2-dihydroquinolin-6-yl)benzenesulfonamide]: the IC50 was 300 nM.
With `CC1=CC(C)(C)Nc2ccc(NS(=O)(=O)c3cccc(F)c3)cc21` [Example 68, 3-Fluoro-N-(2,2,4-trimethyl-1,2-dihydroquinolin-6-yl)benzenesulfonamide] the figure was 1500 nM; with `CC(=O)N(c1ccc2c(c1)C(C)=CC(C)(C)N2)S(=O)(=O)c1ccc(Cl)s1` [Example 89, N-[(5-Chloro-2-thienyl)sulfonyl]-N-(2,2,4-trimethyl-1,2-dihydroquinolin-6-yl)acetamide], 300 nM.
With `CC1(C)OC(=S)Nc2ncc(NS(=O)(=O)c3cccs3)cc21` [Example 41, N-(4,4-Dimethyl-2-thioxo-1,4-dihydro-2H-pyrido[2,3-d][1,3]oxazin-6-yl)thiophene-2-sulfonamide] the figure was 5500 nM; with `CC1(C)OC(=S)Nc2ccc(NS(=O)(=O)c3ccsc3)cc21` [Example 28, N-(4,4-Dimethyl-2-thioxo-1,4-dihydro-2H-3,1-benzoxazin-6-yl)thiophene-3-sulfonamide], 13 nM; with `C=CC1(C)OC(=O)Nc2ccc(NS(=O)(=O)c3cccs3)cc21` (stereo not shown) [Example 49, N-(4-Methyl-2-oxo-4-vinyl-1,4-dihydro-2H-3,1-benzoxazin-6-yl)thiophene-2-sulfonamide], 2700 nM.
As to `CCCCS(=O)(=O)Nc1ccc(OS(=O)(=O)c2ccc(C)cc2)cc1` [Example 106, 4-[(Butylsulfonyl)amino]phenyl 4-methylbenzenesulfonate], the IC50 is 8000 nM.
With `CC1(C)OC(=S)Nc2ncc(CS(=O)(=O)c3cccs3)cc21` [Example 37, 4,4-Dimethyl-6-[(2-thienylsulfonyl)methyl]-1,4-dihydro-2H-pyrido[2,3-d][1,3]oxazin-2-thione] the figure was 960 nM; with `CC1=CC(C)(C)Nc2ccc(NS(=O)(=O)c3ccsc3)cc21` [Example 74, N-(2,2,4-Trimethyl-1,2-dihydroquinolin-6-yl)thiophene-3-sulfonamide], 120 nM; with `CC(=O)N(c1ccc2c(c1)C(C)=CC(C)(C)N2)S(=O)(=O)c1ccccc1` [Example 87, N-(Phenylsulfonyl)-N-(2,2,4-trimethyl-1,2-dihydroquinolin-6-yl)acetamide], 500 nM.
Consider `COC(=O)C(=O)N(c1ccc2c(c1)C(C)=CC(C)(C)N2)S(=O)(=O)c1cccs1` [Example 91, Methyl Oxo[(2-thienylsulfonyl)-(2,2,4-trimethyl-1,2-dihydroquinolin-6-yl)amino]acetate], for which the IC50 was 100 nM.
Take `CC1=CC(C)(C)Nc2ccc(NS(=O)(=O)c3ccc(Cl)s3)cc21` [Example 66, 5-Chloro-N-(2,2,4-trimethyl-1,2-dihydroquinolin-6-yl)thiophene-2-sulfonamide]: the IC50 came to 1300 nM.
In the case of `Cc1ccc(S(=O)(=O)Nc2ccc3c(c2)C(C)CC(C)(C)N3)cc1` (stereo not shown) [Example 97, 4-Methyl-N-(2,2,4-trimethyl-1,2,3,4-tetrahydroquinolin-6-yl)benzenesulfonamide], the IC50 is 2200 nM.
With `CC1=CC(C)(C)Nc2ccc(N(C)S(=O)(=O)c3ccc(C)cc3)cc21` [Example 81, N,4-Dimethyl-N-(2,2,4-trimethyl-1,2-dihydroquinolin-6-yl)benzenesulfonamide] the figure was 500 nM.
`CC1=CC(C)(C)Nc2cc(F)c(OS(=O)(=O)c3ccc(C)cc3)cc21` [Example 54, 7-Fluoro-2,2,4-trimethyl-1,2-dihydroquinolin-6-yl 4-methylbenzenesulfonate] displayed an IC50 of 200 nM.
`Cc1ccc(S(=O)(=O)Oc2ccc(NS(C)(=O)=O)cc2)cc1` [Example 105, 4-[(Methylsulfonyl)amino]phenyl 4-methylbenzenesulfonate] had an IC50 of 6600 nM.
In the case of `CC1(C)OC(=S)Nc2ccc(OS(=O)(=O)c3ccc4ccccc4c3)cc21` [Example 14, 4,4-Dimethyl-2-thioxo-1,4-dihydro-2H-3,1-benzoxazin-6-yl naphthalene-2-sulfonate], the IC50 turned out to be 470 nM.
`CC1=CC(C)(C)Nc2cc(C)c(NS(=O)(=O)c3ccc(C)cc3)cc21` [Example 80, 4-Methyl-N-(2,2,4,7-tetramethyl-1,2-dihydroquinolin-6-yl)benzenesulfonamide] registered an IC50 of 1300 nM.

By IC50 is commonly meant the concentration that gives 50% inhibition. High values mean weaker potency in that assay, low ones greater potency in that assay.

For the origin of these results see patent US20100160304A1, “AROMATIC SULFONE COMPOUND AS ALDOSTERONE RECEPTOR MODULATOR” (Dainippon Sumitomo Pharma Co., Ltd, priority 2005, published 2010).
